Test results from ChEMBL document CHEMBL3593223, “Neolignans with a Rare 2-Oxaspiro[4.5]deca-6,9-dien-8-one Motif from the Stem Bark of Cinnamomum subavenium” (J Nat Prod, 2015).

Tests used:
RAW264.7 = assay: Antiinflammatory activity in mouse RAW264.7 cells assessed as inhibition of LPS-induced nitric oxide production after 24 hrs by Griess assay; type: functional, cell-based; settings: RAW264.7, 24 h
[1] = Cytotoxicity against mouse RAW264.7 cells assessed as survival rate at 200 uM after 48 hrs by MTT assay in absence of LPS relative to control; type: cell-based; settings: read-out: Survival
[2] = Cytotoxicity against mouse RAW264.7 cells assessed as survival rate at 200 uM after 48 hrs by MTT assay in presence of LPS relative to control; type: cell-based; settings: read-out: Survival

Compound | IC50 (RAW264.7) | viability at 48 h, 200 µM [1] | viability at 48 h, 200 µM [2]
COC1=CC2(C=C(OC)C1=O)[C@@H](CO)[C@H](c1cc(OC)c(O)c(OC)c1)O[C@H]2[C@H](O)CO | 4.3 µM | 102% | 111%
COC1=CC2(C=C(OC)C1=O)[C@H](CO)[C@@H](c1ccc(O)c(OC)c1)O[C@@H]2[C@@H](O)CO | 17.9 µM | 98% | 104%
COC1=CC2(C=C(OC)C1=O)[C@@H](CO)[C@H](c1ccc(O)c(OC)c1)O[C@H]2[C@H](O)CO | 5.6 µM | 99% | 90%
COC1=CC2(C=C(OC)C1=O)[C@H](CO)[C@@H](c1cc(OC)c(O)c(OC)c1)O[C@@H]2[C@@H](O)CO | 15.1 µM | 101% | 109%
C[C@@H]1C[C@H]2[C@@H]3CCC4=CC(=O)C=C[C@]4(C)[C@@]3(F)[C@@H](O)C[C@]2(C)[C@@]1(O)C(=O)CO [DEXAMETHASONE] | 0.63 µM | 91% | 100%
